Data taken from ChEMBL document CHEMBL1148834, “A novel diketo phosphonic acid that exhibits specific, strand-transfer inhibition of HIV integrase and anti-HIV activity” (Bioorg Med Chem Lett, 2007).

Assays:
[1] = tested on: Human immunodeficiency virus 1; assay: Antiviral activity against HIV1 TEK1 in PBMC; type: functional, organism-based; conditions: Human immunodeficiency virus 1, TEK1
[2] = Therapeutic index, ratio of CC50 for PBMC to IC50 for HIV1 NL4-3; conditions: read-out: Ratio CC50/IC50
[3] = tested on: Human immunodeficiency virus 1; assay: Antiviral activity against HIV1 NL4-3 in PBMC; type: functional, organism-based; conditions: Human immunodeficiency virus 1, NL4-3
[4] = Cytotoxicity against PBMC cells; type: cell-based; conditions: human
[5] = Therapeutic index, ratio of CC50 for PBMC to IC50 for HIV1 TEK1; conditions: read-out: Ratio CC50/IC50
[6] = Inhibition of HIV integrase strand transfer activity by magnesium chloride-based assay; parameters: species or system Human immunodeficiency virus
[7] = Inhibition of HIV integrase 3'-processing activity by magnesium chloride-based assay; parameters: species or system Human immunodeficiency virus

| Compound | IC50 [1] [µM] | selectivity ratio [2] | IC50 [3] [µM] | CC50 [4] [µM] | selectivity ratio [5] | IC50 [6] [µM] | IC50 [7] [µM] |
| --- | --- | --- | --- | --- | --- | --- | --- |
| O=C(/C=C(\O)P(=O)(O)O)c1cc(OCc2ccccc2)cc(OCc2ccccc2)c1 | 8.1 | 4 | 11.8 | 46.9 | 5.8 |  |  |
| O=C(/C=C(\O)P(=O)(O)O)c1cn(Cc2ccccc2)c(=O)n(Cc2ccccc2)c1=O | 4 | > 62 | 3.2 | > 200 | > 50 | 20.2 | > 333 |
